In US11471394B2, “Oral care compositions containing deoxy sugar antimetabolites” (Colgate-Palmolive Company, priority 2013, dated 2022):

Legend:
Format in all cases: cell-based
[1] = system: Actinomyces naeslundii (ATCC 43146), Lactobacillus casei (ATCC 334), Streptococcus oralis (ATCC 35037), Veillonella parvula (ATCC 17745) and Fusobacterium …; assay: Example 2: planktonic growth (OD600) in healthy biofilm model; conditions: for % planktonic growth inhibition: compound 0.01 wt. %, 24 hours, OD600
Method: (§1) A similar test protocol to Example 1 was performed and tested for its effect in the inhibition of planktonic growth and inhibition of biofilm formation
(§2) The species used for biofilm formation were: Actinomyces naeslundii (ATCC 43146). Lactobacillus casei (ATCC 334), Streptococcus oralis (ATCC 35037), Veillonella parvula (ATCC 17745) and Fusobacterium nucleatum (ATCC 10953). Strains were grown under anaerobic conditions at 37° C. for 72 hours. All the bacteria were grown on an anaerobic blood agar.
(§3) The formula for the anaerobic blood agar was as follows: 52 g/l Brain Heart Infusion Agar (DIFCO), and after autoclaving the following products are added: 1 ml/l baemin from a solution 5 mg/ml, 1 ml/l of vitamin K1 from a solution 100 μg/ml and 50 ml of horse blood. A 24 well microtiter for cell culture (Nalgene Nunc International, Denmark) was used to generate in vitro dental biofilms.
(§4) Wells were filled with 800 μl of the mucin growth medium (MGM), a modification of the medium used by Kinniment et al. (Kinniment, S. L., Wimpenny. J. W., Adams, D., and Marsh, P. D. (1996) Development of a steady-state oral microbial biofilm community using the constant-depth film fermenter. Microbiology 142 (Pt 3): 631-638) which presents a high concentration of proteins: 2.5 g/l mucin, 5 g/l Heart Infusion Broth (DIFCO), 2.0 g/l sodium bicarbonate, 1.0 g/l yeast extract and 0.1 g/l cysteine and 4 ml resazurin from a solution 25 mg/100 ml.
The pH is adjusted to 7.4 prior to autoclaving. After autoclaving the following products was added: 1 ml/l haemin from a solution 5 mg/ml and 1 mL/l of vitamin K1 from a solution 100 μg/ml. Sterile hydroxyapatite discs of 7 mm×1.8 mm (Clarkson Inc., USA) was later placed into the wells. […]
(§5) After 24 hours planktonic phase was saved to measure growth at OD600 and hydroxyapatite disks were washed with sterile PBS and stained with safranine 0.1% for 15 minutes. […] Absorbance at 492 nm measures the amount of safranine retained by the biofilm.

[2] = system: biofilm of Actinomyces naeslundii (ATCC 43146), Lactobacillus casei (ATCC 334), Streptococcus oralis (ATCC 35037), Veillonella parvula (ATCC 17745) and …; assay: Example 2: biofilm formation on hydroxyapatite discs (safranine staining, absorbance at 492 nm); conditions: for biofilm inhibition (in words): 0.01 wt. %, Example 2; for % biofilm inhibition: compound 0.01 wt. %, 24 hours, safranine, absorbance at 492 nm
Method: as §1, §2, §3, §4
The pH is adjusted to 7.4 prior to autoclaving. After autoclaving the following products was added: 1 ml/l haemin from a solution 5 mg/ml and 1 mL/l of vitamin K1 from a solution 100 μg/ml. Sterile hydroxyapatite discs of 7 mm×1.8 mm (Clarkson Inc., USA) was later placed into the wells. In order to form the acquired pellicle the discs were allowed to stay at least 60 hours in contact with the medium under anaerobic conditions prior inoculation. This period of pre-incubation allows checking for possible contaminations and adjusts the final pH to 7.5.
Each of the strains grown on agar was resuspended in MGM medium until reach a turbidity of a McFarlan 3 (approximately 10^8 CFU/ml). Finally, 1 ml of each suspension from the different strains was mixed and 50 μl of this suspension was added into each of the wells in the microtiter plate. Microtiter plates were incubated under anaerobic conditions at 37° C. in an anaerobic chamber. A control of growth was performed in parallel. […]
as §5

[3] = system: five representative oral bacterial species: A. viscosus, L. casei, S. oralis, V. parvula and F. nucleatum; assay: Example 1: bacterial growth in the supernatant media of healthy biofilm model (absorbance); conditions: for % bacterial reduction (A): compound 0.01 wt. %, 48 hours, reduction in absorbance of supernatant media relative to disks treated with media alone
Method: (§6) 0.5″ Ca^2+-deficient hydroxyapatite (HAP) disks were coated with UV-sterilized human saliva overnight.
(§7) After 1 hour, excess treatment was removed by aspiration and disks were inoculated with 1 ml of bacteria from a continuous culture system at an OD(600) of about 0.2. The continuous culture system was maintained for approximately three months at 37° C. and contained five representative oral bacterial species: A. viscosus, L. casei, S. oralis, V. parvula and F. nucleatum. Previous work has shown this mix to form repeatable biofilms that can serve as a representation of the more complex mix of 500-700 bacterial species found in dental plaque.
(§8) The inoculated scHAP disks were incubated for 48 hours at 37° C. to allow a biofilm to form on them. After 48 hours of biofilm formation, disks were transferred to test tubes containing 1 ml of 0.25% trypsin solution. Disks were incubated at 37° C. with shaking for 45 minutes. The tubes were briefly vortexed to resuspend the bacteria, and the supernatants were then transferred to a fresh 24 well plate. Plates were […] for 2 minutes to pellet any residual HAP flakes and the supernatants were removed to fresh plates so that their absorbance could be measured at 610 nm. All samples were tested in triplicate and the average of the three wells was determined.
In addition to the absorbance of the trypsin-digested resuspended bacterial solution, similar absorbance measurements were also taken of the final supernatant media after the biofilms were allowed to grow for 48 hours.
The effect of 2-deoxy-D-glucose on bacterial growth in the supernatant media in which the biofilms were grown is shown in the table below.

[4] = system: biofilm of five representative oral bacterial species: A. viscosus, L. casei, S. oralis, V. parvula and F. nucleatum; assay: Example 1: healthy biofilm formation on saliva-coated HAP disks (absorbance at 610 nm after trypsin); conditions: for biofilm inhibition (in words): 0.01 wt. %, Example 1; for % biofilm inhibition (B) / % biofilm inhibition efficiency (C): compound 0.01 wt. %; for % biofilm inhibition (B): 48 hours biofilm, reduction in absorbance relative to disks treated with media alone; for % biofilm inhibition efficiency (C): C=B/A×100%
Method: as §6, §7, §8

[5] = system: pathogenic biofilm spiked with P. gingivalis; assay: Example 3: pathogenic biofilm model spiked with P. gingivalis; conditions: overall conclusion, no data given
Method: A similar experiment was conducted using a pathogenic biofilm model. Biofilms were inoculated as above for the healthy biofilms. Initial bacterial attachment and biofilm formation was allowed to proceed for 4 hours. After the initial 4 hours, each biofilm was spiked with 100 μL of an overnight culture of P. gingivalis. Biofilms were then allowed to grow for another 48 hours prior to trypsin treatment, and absorbance measurements were taken as described above.

Compound | planktonic growth inhibition (in words) ([1]; 0.01 wt. %, Example 2) | % planktonic growth inhibition [1] | biofilm inhibition (in words) [2] | % biofilm inhibition [2] | bacterial reduction (in words) ([3]; 0.01 wt. %, Example 1) | % bacterial reduction (A) [3] | biofilm inhibition (in words) [4] | % biofilm inhibition (B) [4] | % biofilm inhibition efficiency (C) [4] | inhibition of oral biofilm formation (in words) [5]
Cl.NCC(O)CCC(N)C(=O)O (racemic) [DL-5-hydroxylysine HCl, reference compound] | no planktonic growth inhibition | 0.00% | minimal biofilm inhibition | 5.91% | significant bacterial reduction | 21.45% | negligible biofilm inhibition | 5.85% | 27.27% | –
O=C[C@H](F)[C@@H](O)[C@H](O)[C@H](O)CO [2-fluoro-2-deoxy-D-glucose] | – | – | – | – | – | 0.00% | effective and efficient inhibitor of biofilm formation | 46.50% | >>>1000% | very good inhibitors of oral biofilm formation
Oc1cc(Cl)ccc1Oc1ccc(Cl)cc1Cl [Triclosan] | – | – | – | – | – | 85.63% | – | – | – | –
Benzalkonium chloride [reference compound] | – | – | – | – | – | 88.21% | – | 52.58% | 59.61% | –
C[C@@H](O)[C@@H](O)[C@H](O)[C@@H](O)C=O [6-deoxy-D-glucose] | – | – | – | – | – | 1.54% | effective and efficient inhibitor of biofilm formation | 25.33% | 1644.81% | very good inhibitors of oral biofilm formation
N[C@H](C=O)[C@@H](O)[C@H](O)[C@H](O)CO [D-mannosamine, 2-amino-2-deoxy-D-mannose] | – | 0.00% | effective inhibition of biofilm formation | 34.01% | – | – | – | – | – | –
O=CC[C@@H](O)[C@H](O)[C@H](O)CO [2-deoxy-D-glucose] | – | – | – | – | – | 9.81% | – | 30.54% | 311.31% | –
CCCCCCCCCCCCCCCC[n+]1ccccc1 [CPC, cetylpyridinium chloride] | – | – | – | – | – | 65.44% | – | – | – | –
